Earlier results, collected in patent publication US20190209710A1, “[…] AND CHEWING GUM […] A […] FOR THE TASTE-BASED DETECTION OF VIRUSES” (Julius-Maximilians-Universitaet Wuerzburg, priority 2016, published 2019).

Assays:
bacterial sialidases = conditions: literature: Beau et al., Eur. J. Biochem., 106 (1980) 531-540
viral sialidases = conditions: literature: Beau et al., Eur. J. Biochem., 106 (1980) 531-540

CO[C@H]1CC(O)(C(=O)O)O[C@@H]([C@H](O)[C@H](O)CO)[C@@H]1NC(C)=O (some centres unmarked) [4-methoxy-Neu5Ac]
cleavage by bacterial sialidases (bacterial sialidases): not cut
cleavage by viral sialidases (viral sialidases): very quickly
